The test concerns the target T1, FLAG-p7 (HCV p7, genotype 1b) (Hepatitis C virus isolate HC-J4, UniProt O92972).
T1 sequence (O92972 747-809 limits assumed): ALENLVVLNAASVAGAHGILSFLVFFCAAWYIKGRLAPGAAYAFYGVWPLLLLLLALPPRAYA
The test is described as follows: carboxyfluorescein release from liposomes, fluorimetry, initial rates. Type of test: biochemical.

What is called IC50 is the concentration at which inhibition is half-maximal. Consider `NC12CC3CC(CC(C3)C1)C2` [amantadine], for which the IC50 is roughly 2000 nM.

For the origin of these results see paper PMC7615709 (Antiviral research, 2007).
